Measured values as given in US20080312160A1, “METHOD OF TREATING ENTERITIS, […], AND DIARRHEA FROM C. DIFFICILE WITH AN A2A ADENOSINE RECEPTOR AGONIST” (priority 2007, published 2008).
Peptide text beside a SMILES is read from it.

Columns and labels:
[1] = test system: Toxin A-induced secretion in rabbit ileal loops; test: Rabbit ileal loops, toxin A-induced secretion (Example 3); type: in vivo, New Zealand white rabbits
[2] = test system: Toxin A-induced secretion in rabbit ileal loops; test: as above; type: in vivo, New Zealand white rabbits; remark: listed apart in the source
Source text: Rabbit Ileal Loops: The animal experiment protocol was approved by the Animal Care and Use Committee at the University of Virginia. Eight New Zealand white rabbits weighing between 2.5-3 kg were used for this experiment. Each rabbit was fasted overnight. On the day of the experiment, the rabbits were anesthetized intramuscularly using a ketamine and xylazine solution in a 2:1 ratio. An intravenous line was placed in the ear vein of each rabbit for administration of the adenosine analog, ATL 370 (Adenosine Therapeutics) or a phosphate buffered saline placebo (PBS). Once anesthetized, a midline abdominal incision was made and the ileum was exposed. A measured amount of ileum was injected with 5 mL of PBS to flush any remaining fecal material. After the ileum was flushed, 10 loops of 2.5-5 cm each were ligated using double ties, with 0.5-1 cm of space between each loop.
Once the bowel was exposed and ligated, each rabbit received a 250 μL IV injection of PBS (Toxin A and Toxin A/Alanyl glutamine groups) or 1.5 ug/250 μL of ATL 370 (Toxin A/Adenosine and Toxin A/Adenosine/Alanyl-glutamine groups). An additional dose of either PBS or ATL 370 was administered 2 hours after the first dose for a total of 2 doses. Each dose was followed by a 250-500 μL heparin saline injection to prevent the IV from clotting.
A total of 79 loops were studied, of which 15 loops from 8 animals served as controls. Each of the control loops were injected intraluminally with 1 mL of a sterile PBS solution. The remaining 64 loops were injected intraluminally with 20 μg/500 μL of Toxin A (TechLab) and combined with either 500 μL PBS (Toxin A and Toxin A/Adenosine groups) or 500 μL of a […], 30 mM, 10 mM, or 3 mM alanyl-glutamine solution (Toxin A/Alanyl-glutamine and Toxin A/Adenosine/Alanyl-glutamine groups). The ileal loops were replaced intraperitoneally and the abdomimal incision was sutured. Sedation continued throughout the procedure and were euthanized after 4 hours.
Measurement of intestinal secretion: After 4 hours of incubation, the animals were euthanized and the ligated loops were immediately removed. The length of each loop was measured and incised and the intraluminal secretion was quantified. The volume to length ratio (V:L) was measured as milliliters per centimeter per loop. The gross description of intestinal fluid (serous, serosanguinous, hemorrhagic or purulent) was documented.

[3] = test system: C. difficile toxin A-induced inflammation and secretion in rabbit ileal loops; type: in vivo, New Zealand white rabbits; conditions: rabbit, in vivo
Protocol: Materials and Methods: New Zealand white rabbits weighing about 2 kg are fasted overnight. Under anesthesia with ketamine (60-80 mg/kg) and xylazine (5-10 mg/kg) administered intramuscularly, a midline abdominal incision is performed to expose the small bowel. After the ileum is flushed, four-cm loops are ligated using double ties with a 1 cm interval between loops. Each of the control loops is injected intraluminally with 1 mL solution of PBS with either C. difficile toxin A (toxin A) (Techlab, Blacksburg, Va.) at 10 μg/mL. Loops from another set of rabbits are treated with the adenosine A2A agonists, JMR 193 (ATL 193) (10 nM, 100 nM, or 1 uM doses) or ATL 146e ([…], 100 nM, 1 uM doses) immediately before the enterotoxin is administered. In addition a rabbit is treated with A2A agonist, ATL 313 (100 nM), alone and another rabbit treated with ATL 313 with alanyl-glutamine (25 mM). After 5 hours of incubation, the ligated small intestinal loops are removed. The length of each ligated ileal segment is measured and intraluminal fluid was quantified. Volume to length ratio, V/L (mL/cm), per loop is calculated. Samples of intestinal stained with hematoxylin-eosin and graded from 0 (none) to 4 (worst) based on the degree of mucosal disruption, increase in cellularity and intensity of vascular congestion.

[4] = test system: Clostridium difficile toxin A-induced TNF-α production; test: Quantification of TNF-α by ELISA in ileal tissue; type: in vivo, mice; conditions: ZM241385 + ATL 313 + TxA
Protocol: Mice were fasted overnight, but allowed access to water, and then anesthetized with ketamine and xylazine (60 and 5 mg/Kg intramuscularly, respectively). Through a midline laparotomy, one 4-cm ileal loop was ligated and injected with either 0.1 ml of PBS pH 7.4 (control) or buffer containing TxA (1-10 μg). The abdomen was closed, and the animals were allowed to regain consciousness. Three hours after administration of TxA, mice were sacrificed and the intestinal loops were removed. The loop length, weight, and fluid volume were recorded. A portion of the loop was frozen at −70° C. for measurement of myeloperoxidase (MPO) and ADA activities and TNF-α concentration. The remaining tissue was fixed in 10% formalin and embedded in paraffin, and sections were stained with hematoxylin and eosin for histological grading of ileal inflammation. Some mice were injected with ATL 313 ([…] final concentration) immediately followed by PBS or TxA (5 μg); another group was injected with ZM241385 (5 nM), the selective A2A AR antagonist, immediately followed by PBS or ATL 313 (5 nM)+TxA (5 μg) in the ileal loop. […]
Ileal tissue was harvested from animals in order to measure TNF-α concentration by enzyme-linked immunosorbent assay (ELISA). The results are expressed as pg/mL of TNF-α.

[5] = test system: murine ileal loops injected with Clostridium difficile toxin A (TxA); test: TxA-induced enteritis in ligated murine ileal loops: loop weight and secretion volume; type: in vivo, mice
Protocol: For this study, 174 male Swiss mice, 25-30 g body weight, from the animal colony of the Federal University of Ceara were used. The animals received water and food ad libitum.
(§1) Mice were fasted overnight, but allowed access to water, and then anesthetized with ketamine and xylazine (60 and 5 mg/Kg intramuscularly, respectively). Through a midline laparotomy, one 4-cm ileal loop was ligated and injected with either 0.1 ml of PBS pH 7.4 (control) or buffer containing TxA (1-10 μg). The abdomen was closed, and the animals were allowed to regain consciousness. Three hours after administration of TxA, mice were sacrificed and the intestinal loops were removed. The loop length, weight, and fluid volume were recorded. A portion of the loop was frozen at −70° C. for measurement of myeloperoxidase (MPO) and ADA activities and TNF-α concentration. The remaining tissue was fixed in 10% formalin and embedded in paraffin, and sections were stained with hematoxylin and eosin for histological grading of ileal inflammation. Some mice were injected with ATL 313 ([…] final concentration) immediately followed by PBS or TxA (5 μg); another group was injected with ZM241385 (5 nM), the selective A2A AR antagonist, immediately followed by PBS or ATL 313 (5 nM)+TxA (5 μg) in the ileal loop. In another experiment, TxA (5 μg) was injected into the ileal loop, the abdomen was closed, and, 30 min later, the abdomen was reopened and ATL 313 (5 nM) administered.

[6] = test system: Clostridium difficile toxin A (TxA)-induced histological alterations; test: Histological grading of ileal inflammation, murine ileal loops; type: in vivo, mice
Protocol: as §1
The severity of inflammation was scored in coded slides by a pathologist on a scale of 1 (mild) to 3 (severe) for epithelial damage, edema, and neutrophil infiltration.

[7] = ZM241385 5 nM + ATL 313 5 nM + TxA 5 μg

C[C@H](N)C(=O)N[C@@H](CCC(N)=O)C(=O)O [alanyl-glutamine] (H-Ala-Gln-OH)
V:L ratio ([1]; toxin A mixed with alanyl-glutamine 100 mM, intraluminal, 4 hours): 0.44 mL/cm
V:L ratio ([2]; toxin A mixed with alanyl-glutamine 3 mM, intraluminal, 4 hours): 0.96 mL/cm
V:L ratio ([2]; toxin A mixed with alanyl-glutamine 10 mM, intraluminal, 4 hours): 0.84 mL/cm
V:L ratio ([2]; toxin A mixed with alanyl-glutamine 30 mM, intraluminal, 4 hours): 0.67 mL/cm
loops hemorrhagic, purulent, or a combination of the two ([2]; toxin A/alanyl-glutamine loops (11/15)): 73%

Nc1nc(C#CCC2CCN(C(=O)Oc3ccc(Cl)cc3)CC2)nc2c1ncn2C1OC(C(=O)NC2CC2)C(O)C1O (stereo not drawn) [ATL 370, 4-{3-[6-Amino-9-(5-cyclopropylcarbamoyl-3,4-dihydroxy-tetrahydro-furan-2-yl)-9H-purin-2-yl]-prop-2-ynyl}-piperidine-1-carboxylic acid 4-chloro-phenyl ester]
V:L ratio ([1]; ATL 370 IV + toxin A + alanyl-glutamine 100 mM, n=4, p<0.001 vs toxin A): 0.05 mL/cm
V:L ratio ([2]; ATL 370 IV 1.5 ug x 2 doses + intraluminal toxin A only, n=8, p=0.35 vs toxin A): 0.44 mL/cm
V:L ratio ([2]; ATL 370 IV + toxin A + alanyl-glutamine 3 mM): 0.21 mL/cm
V:L ratio ([2]; ATL 370 IV + toxin A + alanyl-glutamine 10 mM): 0.20 mL/cm
V:L ratio ([2]; ATL 370 IV + toxin A + alanyl-glutamine 30 mM): 0.14 mL/cm
loops purulent ([2]; ATL 370 IV + toxin A + alanyl-glutamine, all doses (7/16)): 44%
number of hemorrhagic loops ([2]; ATL 370 IV + toxin A + alanyl-glutamine, all doses (16 loops)): one
loops either hemorrhagic or purulent ([2]; ATL 370 IV + toxin A only (10/16)): 63%

CCNC(=O)C1OC(n2cnc3c(N)nc(C#CCC4CCC(C(=O)OC)CC4)nc32)C(O)C1O (stereo not drawn) [ATL 146e, 4-{3-[6-Amino-9-(5-ethylcarbamoyl-3,4-dihydroxy-tetrahydro-furan-2-yl)-9H-purin-2-yl]-prop-2-ynyl}-cyclohexanecarboxylic acid methyl ester]
inflammation induced by toxin A (histology score 0 to 4) [3]: reduced
toxin A-induced secretion (volume to length ratio) [3]: not consistently ameliorated

CCNC(=O)C1OC(n2cnc3c(N)nc(C#CCC4CCC(COC(C)=O)CC4)nc32)C(O)C1O (stereo not drawn) [JMR 193, Acetic acid 4-{3-[6-amino-9-(5-ethylcarbamoyl-3,4-dihydroxy-tetrahydro-furan-2-yl)-9H-purin-2-yl]-prop-2-ynyl}-cyclohexylmethyl ester]
inflammation induced by toxin A (histology score 0 to 4) [3]: reduced
toxin A-induced secretion (volume to length ratio) [3]: not consistently ameliorated

Nc1nc(NCCc2ccc(O)cc2)nc2nc(-c3ccco3)nn12 [ZM241385, 4-[2-(7-Amino-2-furan-2-yl-[1,2,4]triazolo[1,5-a][1,3,5]triazin-5-ylamino)-ethyl]-phenol, reference compound]
TNF-α production in ileal tissue [4]: blocked ATL313 action
secretion volume/ileal loop length ratio [5, 7]: significantly reversed the protective effect of ATL 313
weight/ileal loop length ratio [5, 7]: significantly reversed the protective effect of ATL 313
secretion volume/ileal loop length ([5]; ZM241385 alone, no TxA, PBS=1.25±1.25): 0.0 ± 0.0 µL/cm
weight/ileal loop length ([5]; ZM241385 alone, no TxA, PBS=34.5±3.2): 19.9 ± 0.9 mg/cm
median injury score ([6]; ZM241385 + ATL 313 + TxA, median, range): 2.5
median injury score ([6]; compound alone, no TxA, median(range)): 0(0-0)
